Results from patent US12077503B2, “Substituted cyclic amides and their use as herbicides” (FMC CORPORATION, priority 2015, dated 2024).

What was measured:
Format in all cases: in vivo
Kochia (Kochia scoparia) [1] = test: Test A preemergence; conditions: Bassia scoparia, pre-emergence, 240 h, 0 to 100 scale where 0 is no effect and 100 is complete control, read-out: Kochia plant response rating; for pest or weed control at 31 g/ha: 31 g ai/ha, Preemergence; for pest or weed control at 125 g/ha: 125 g ai/ha, preemergence, visual injury rating, approximately 10 d
Procedure, shortened: (§1)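 Treatment is preemergence as a directed soil spray after planting, or postemergence at the one- to two-leaf stage, with test chemical in a non-phytotoxic solvent mixture plus surfactant. Plants stay in the greenhouse about 10 d before visual injury scoring on a 0 to 100 scale versus untreated controls.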

[2] = system: barnyardgrass (Echinochloa crus-galli); test: Test A preemergence; conditions: Echinochloa crus-galli, pre-emergence, 240 h, 0 to 100 scale where 0 is no effect and 100 is complete control, read-out: Barnyardgrass plant response rating; for pest or weed control at 31 g/ha: 31 g ai/ha, Preemergence; for pest or weed control at 125 g/ha: 125 g ai/ha, preemergence, visual injury rating, approximately 10 d
Procedure, shortened: as §1

[3] = system: giant foxtail (Setaria faberii); test: Test A preemergence; conditions: Setaria faberi, pre-emergence, 240 h, 0 to 100 scale where 0 is no effect and 100 is complete control, read-out: Foxtail, Giant plant response rating; for pest or weed control at 31 g/ha: 31 g ai/ha, Preemergence; for pest or weed control at 125 g/ha: 125 g ai/ha, preemergence, visual injury rating, approximately 10 d
Procedure, shortened: as §1

[4] = system: pigweed (Amaranthus retroflexus); test: Test A preemergence; conditions: Amaranthus retroflexus, pre-emergence, 240 h, 0 to 100 scale where 0 is no effect and 100 is complete control, read-out: Pigweed plant response rating; for pest or weed control at 31 g/ha: 31 g ai/ha, Preemergence; for pest or weed control at 125 g/ha: 125 g ai/ha, preemergence, visual injury rating, approximately 10 d
[5] = system: ragweed (common ragweed, Ambrosia elatior); test: Test A preemergence; conditions: Ambrosia artemisiifolia, pre-emergence, 240 h, 0 to 100 scale where 0 is no effect and 100 is complete control, read-out: Ragweed plant response rating; for pest or weed control at 31 g/ha: 31 g ai/ha, Preemergence; for pest or weed control at 125 g/ha: 125 g ai/ha, preemergence, visual injury rating, approximately 10 d
Procedure, shortened: as §1

[6] = system: ryegrass, Italian (Italian ryegrass, Lolium multiflorum); test: Test A preemergence; conditions: Lolium multiflorum, pre-emergence, 240 h, 0 to 100 scale where 0 is no effect and 100 is complete control, read-out: Ryegrass, Italian plant response rating; for pest or weed control at 31 g/ha: 31 g ai/ha, Preemergence; for pest or weed control at 125 g/ha: 125 g ai/ha, preemergence, visual injury rating, approximately 10 d
Procedure, shortened: as §1

[7] = system: Galium (catchweed bedstraw, Galium aparine); test: Test A postemergence; conditions: Galium, post-emergence, 240 h, Postemergence, read-out: Galium plant response rating (0 to 100 scale); for pest or weed control at 125 g/ha: 125 g ai/ha, visual rating about 10 d after treatment; for pest or weed control at 31 g/ha: 31 g ai/ha, 0 is no effect, 100 is complete control
Procedure, shortened: as §1

Kochia (Kochia scoparia) [8] = test: Test A postemergence; conditions: Bassia scoparia, post-emergence, 240 h, Postemergence, read-out: Kochia plant response rating (0 to 100 scale); for pest or weed control at 125 g/ha: 125 g ai/ha, visual rating about 10 d after treatment; for pest or weed control at 31 g/ha: 31 g ai/ha, 0 is no effect, 100 is complete control
Procedure, shortened: as §1

[9] = system: barnyardgrass (Echinochloa crus-galli); test: Test A postemergence; conditions: Echinochloa crus-galli, post-emergence, 240 h, Postemergence; for pest or weed control at 125 g/ha: 125 g ai/ha, visual rating about 10 d after treatment, read-out: Barnyardgrass plant response rating (0 to 100 scale, 0 no effect, 100 complete control); for pest or weed control at 31 g/ha: 31 g ai/ha, 0 is no effect, 100 is complete control, read-out: Barnyardgrass plant response rating (0 to 100 scale)
Procedure, shortened: as §1

[10] = system: blackgrass (Alopecurus myosuroides); test: Test A postemergence; conditions: Alopecurus myosuroides, post-emergence, 240 h, Postemergence, read-out: Blackgrass plant response rating (0 to 100 scale); for pest or weed control at 125 g/ha: 125 g ai/ha, visual rating about 10 d after treatment; for pest or weed control at 31 g/ha: 31 g ai/ha, 0 is no effect, 100 is complete control
Procedure, shortened: as §1

corn (Zea mays) = test: Test A postemergence; conditions: Zea mays, post-emergence, 240 h, Postemergence, read-out: Corn plant response rating (0 to 100 scale); for plant injury at 125 g/ha: 125 g ai/ha, visual rating about 10 d after treatment; for plant injury at 31 g/ha: 31 g ai/ha, 0 is no effect, 100 is complete control
Procedure, shortened: as §1

[11] = system: giant foxtail (Setaria faberii); test: Test A postemergence; conditions: Setaria faberi, post-emergence, 240 h, Postemergence, read-out: Foxtail, Giant plant response rating (0 to 100 scale); for pest or weed control at 125 g/ha: 125 g ai/ha, visual rating about 10 d after treatment; for pest or weed control at 31 g/ha: 31 g ai/ha, 0 is no effect, 100 is complete control
Procedure, shortened: as §1

[12] = system: pigweed (Amaranthus retroflexus); test: Test A postemergence; conditions: Amaranthus retroflexus, post-emergence, 240 h, Postemergence, read-out: Pigweed plant response rating (0 to 100 scale); for pest or weed control at 125 g/ha: 125 g ai/ha, visual rating about 10 d after treatment; for pest or weed control at 31 g/ha: 31 g ai/ha, 0 is no effect, 100 is complete control
Procedure, shortened: as §1

[13] = system: ragweed (common ragweed, Ambrosia elatior); test: Test A postemergence; conditions: Ambrosia artemisiifolia, post-emergence, 240 h, Postemergence, read-out: Ragweed plant response rating (0 to 100 scale); for pest or weed control at 125 g/ha: 125 g ai/ha, visual rating about 10 d after treatment; for pest or weed control at 31 g/ha: 31 g ai/ha, 0 is no effect, 100 is complete control
Procedure, shortened: as §1

[14] = system: ryegrass, Italian (Italian ryegrass, Lolium multiflorum); test: Test A postemergence; conditions: Lolium multiflorum, post-emergence, 240 h, Postemergence, read-out: Ryegrass, Italian plant response rating (0 to 100 scale); for pest or weed control at 125 g/ha: 125 g ai/ha, visual rating about 10 d after treatment; for pest or weed control at 31 g/ha: 31 g ai/ha, 0 is no effect, 100 is complete control
Procedure, shortened: as §1

[15] = system: wheat (Triticum aestivum); test: Test A postemergence; conditions: Triticum aestivum, post-emergence, 240 h, Postemergence, read-out: Wheat plant response rating (0 to 100 scale); for plant injury at 125 g/ha: 125 g ai/ha, visual rating about 10 d after treatment; for plant injury at 31 g/ha: 31 g ai/ha, 0 is no effect, 100 is complete control
Procedure, shortened: as §1

[16] = system: barnyardgrass (Echinochloa crus-galli); test: Test B flooded paddy test; conditions: Echinochloa crus-galli, 250 g ai/ha, Flood; 0 to 100 scale where 0 is no effect and 100 is complete control; read-out: Barnyardgrass plant response rating
Procedure, shortened: (§2)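 Rating scale 0–100 (visual, vs untreated controls) after a 13–15 d greenhouse period; application to the flood layer, 3 cm above soil and maintained; plants at 2-leaf stage when treated.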

[17] = system: ducksalad (Heteranthera limosa); test: Test B flooded paddy test; conditions: Heteranthera limosa, 250 g ai/ha, Flood; 0 to 100 scale where 0 is no effect and 100 is complete control; read-out: Ducksalad plant response rating
Procedure, shortened: as §2

rice (Oryra sativa) = test: Test B flooded paddy test; conditions: Oryza sativa, 250 g ai/ha, Flood; 0 to 100 scale where 0 is no effect and 100 is complete control; read-out: Rice plant response rating
Procedure, shortened: as §2

[18] = system: sedge, umbrella (small-flower umbrella sedge, Cyperus difformis); test: Test B flooded paddy test; conditions: Cyperus difformis, 250 g ai/ha, Flood; 0 to 100 scale where 0 is no effect and 100 is complete control; read-out: Sedge, Umbrella plant response rating
Procedure, shortened: as §2

CN1C[C@H](c2csc3c2CCCC3)[C@@H](C(=O)Nc2ccccc2F)C1=O [Compound 1275]
pest or weed control at 31 g/ha (Kochia (Kochia scoparia) [1]): 0% | pest or weed control at 125 g/ha (Kochia (Kochia scoparia) [1]): 20% | pest or weed control at 31 g/ha [2]: 70% | pest or weed control at 125 g/ha [2]: 100% | pest or weed control at 31 g/ha [3]: 90% | pest or weed control at 125 g/ha [3]: 100% | pest or weed control at 31 g/ha [4]: 0% | pest or weed control at 125 g/ha [4]: 0% | pest or weed control at 31 g/ha [5]: 0% | pest or weed control at 125 g/ha [5]: 20% | pest or weed control at 31 g/ha [6]: 0% | pest or weed control at 125 g/ha [6]: 0% | pest or weed control at 125 g/ha [7]: 0% | pest or weed control at 31 g/ha [7]: 0% | pest or weed control at 125 g/ha (Kochia (Kochia scoparia) [8]): 0% | pest or weed control at 31 g/ha (Kochia (Kochia scoparia) [8]): 0% | pest or weed control at 125 g/ha [9]: 90% | pest or weed control at 31 g/ha [9]: 30% | pest or weed control at 125 g/ha [10]: 0% | pest or weed control at 31 g/ha [10]: 0% | plant injury at 125 g/ha (corn (Zea mays)): 0% | plant injury at 31 g/ha (corn (Zea mays)): 0% | pest or weed control at 125 g/ha [11]: 70% | pest or weed control at 31 g/ha [11]: 20% | pest or weed control at 125 g/ha [12]: 0% | pest or weed control at 31 g/ha [12]: 0% | pest or weed control at 125 g/ha [13]: 0% | pest or weed control at 31 g/ha [13]: 0% | pest or weed control at 125 g/ha [14]: 0% | pest or weed control at 31 g/ha [14]: 0% | plant injury at 125 g/ha [15]: 0% | plant injury at 31 g/ha [15]: 0% | pest or weed control at 250 g/ha [16]: 75% | pest or weed control at 250 g/ha [17]: 90% | pest or weed control at 250 g/ha (rice (Oryra sativa)): 20% | pest or weed control at 250 g/ha [18]: 0%

CN1C[C@H](c2csc3c2CCC3)[C@@H](C(=O)Nc2cccc(F)c2F)C1=O [Compound 1278]
pest or weed control at 31 g/ha (Kochia (Kochia scoparia) [1]): 30% | pest or weed control at 125 g/ha (Kochia (Kochia scoparia) [1]): 30% | pest or weed control at 31 g/ha [2]: 80% | pest or weed control at 125 g/ha [2]: 100% | pest or weed control at 31 g/ha [3]: 100% | pest or weed control at 125 g/ha [3]: 100% | pest or weed control at 31 g/ha [4]: 0% | pest or weed control at 125 g/ha [4]: 90% | pest or weed control at 31 g/ha [5]: 20% | pest or weed control at 125 g/ha [5]: 100% | pest or weed control at 31 g/ha [6]: 0% | pest or weed control at 125 g/ha [6]: 30% | pest or weed control at 125 g/ha [7]: 0% | pest or weed control at 31 g/ha [7]: 0% | pest or weed control at 125 g/ha (Kochia (Kochia scoparia) [8]): 20% | pest or weed control at 31 g/ha (Kochia (Kochia scoparia) [8]): 0% | pest or weed control at 125 g/ha [9]: 100% | pest or weed control at 31 g/ha [9]: 70% | pest or weed control at 125 g/ha [10]: 0% | pest or weed control at 31 g/ha [10]: 0% | plant injury at 125 g/ha (corn (Zea mays)): 0% | plant injury at 31 g/ha (corn (Zea mays)): 0% | pest or weed control at 125 g/ha [11]: 80% | pest or weed control at 31 g/ha [11]: 50% | pest or weed control at 125 g/ha [12]: 0% | pest or weed control at 31 g/ha [12]: 0% | pest or weed control at 125 g/ha [13]: 30% | pest or weed control at 31 g/ha [13]: 0% | pest or weed control at 125 g/ha [14]: 0% | pest or weed control at 31 g/ha [14]: 0% | plant injury at 125 g/ha [15]: 0% | plant injury at 31 g/ha [15]: 0% | pest or weed control at 250 g/ha [16]: 60% | pest or weed control at 250 g/ha [17]: 90% | pest or weed control at 250 g/ha (rice (Oryra sativa)): 35% | pest or weed control at 250 g/ha [18]: 0%
